The text below walks through data of publication PMC11638483, “Naringenin chalcone carbon double-bond reductases mediate dihydrochalcone biosynthesis in apple leaves” (Plant Physiology, 2024).

Test [1] has as its system MdNCR1b. Kind of test: product formation assay, varied NADPH […]. The test is classed as biochemical, Malus domestica. The conditions noted are these: 100 µM naringenin chalcone, Bis-Tris propane 0.1 M, pH 3.0, 30 °C, 30 min.
Test [2] deals with MdNCR1b. Description: product formation assay, varied naringenin chalcone […]. Type of test: biochemical, Malus domestica. The conditions noted are these: 400 µM NADPH, Bis-Tris propane 0.1 M, pH 3.0, 30 °C, 30 min; read-out: Km (apparent).

On to `NC(=O)C1=CN([C@@H]2O[C@H](COP(=O)(O)OP(=O)(O)OC[C@H]3O[C@@H](n4cnc5c(N)ncnc54)[C@H](OP(=O)(O)O)[C@@H]3O)[C@@H](O)[C@H]2O)C=CC1` [NADPH], for which the Km (commonly the concentration of substrate that gives half-maximal velocity) in test [1] stood at 23.1 ± 9.4 µM. Take `O=C(/C=C/c1ccc(O)cc1)c1c(O)cc(O)cc1O` [compound 1, 2ʹ,4,4ʹ,6ʹ-tetrahydroxychalcone]: in test [2], the Km came to 9.9 ± 2.6 µM.
